{"source": "paper PMC9047515", "about": "(Biochemistry, 2022)", "test_in_all_cases": "stopped-flow absorption titration", "assay_type_in_all_cases": "binding", "key": {"BesC [1]": {"target": "T1, BesC (Streptantibioticus cattleyicolor, UniProt F8JJ25)", "T1 sequence (F8JJ25 whole entry)": "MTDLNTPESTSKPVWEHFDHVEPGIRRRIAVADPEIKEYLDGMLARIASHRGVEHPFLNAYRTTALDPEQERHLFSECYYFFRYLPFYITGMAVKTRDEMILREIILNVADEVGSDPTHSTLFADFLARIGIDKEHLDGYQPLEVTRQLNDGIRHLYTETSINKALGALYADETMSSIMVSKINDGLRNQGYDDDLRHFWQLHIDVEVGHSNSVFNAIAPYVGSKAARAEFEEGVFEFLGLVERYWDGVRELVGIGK"}, "BesC [2]": {"target": "T1, BesC", "remark": "listed apart in the source"}, "BesC [3]": {"target": "T1, BesC", "remark": "listed apart in the source"}}, "note": "Where two headings read alike, the source gives them in different places."}
{"smiles": "N[C@@H](CCCCO)C(=O)O", "note": "[6-OH-L-Nle]", "values": [{"measurement": "Kd", "setting": "BesC [1]", "result": "10000 ± 1000", "unit": "µM"}]}
{"smiles": "NCCCC[C@H](N)C(=O)O", "note": "[L-Lys]", "values": [{"measurement": "Kd", "setting": "BesC [2]", "result": "300 ± 100", "unit": "µM"}]}
{"smiles": "NCCSC[C@H](N)C(=O)O", "note": "[4-thia-L-Lys, S-(2-aminoethyl)-L-cysteine]", "values": [{"measurement": "Kd", "setting": "BesC [3]", "result": "< 30", "unit": "µM"}]}
